Data: US12497362B2, “Cyclopentapyrrole orexin receptor agonists” (Merck Sharp & Dohme LLC, priority 2020, dated 2025)

The compounds below were run against T1, human OX2R (Homo sapiens, UniProt O43614) (assay: IPOne (IP-1 accumulation) orexin receptor agonist assay in CHO cells expressing human OX2R). Details: hOX2R IP-One assay, percent of mean max effect of a reference compound at 1 uM with 100% activity established by comparison to Orexin A.
T1 construct: expressed in transfected cells; host or cells: CHO (Chinese hamster ovary) cells, grown under G418 selection
T1 sequence (O43614 1-444): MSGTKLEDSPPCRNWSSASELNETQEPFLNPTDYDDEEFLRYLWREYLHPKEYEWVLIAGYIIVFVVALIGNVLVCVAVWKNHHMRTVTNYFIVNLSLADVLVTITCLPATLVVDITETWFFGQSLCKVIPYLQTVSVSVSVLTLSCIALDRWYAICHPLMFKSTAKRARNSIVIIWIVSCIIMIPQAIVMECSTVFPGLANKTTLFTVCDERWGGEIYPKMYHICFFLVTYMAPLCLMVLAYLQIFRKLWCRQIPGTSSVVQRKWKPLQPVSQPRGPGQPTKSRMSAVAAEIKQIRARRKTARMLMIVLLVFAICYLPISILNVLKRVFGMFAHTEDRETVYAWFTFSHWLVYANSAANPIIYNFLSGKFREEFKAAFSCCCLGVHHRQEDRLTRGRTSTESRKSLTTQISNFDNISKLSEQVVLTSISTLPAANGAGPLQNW
Type: cell-based
Source text: The utility of the compounds in accordance with the present invention as orexin receptor OX1R and/or OX2R agonists may be readily determined without undue experimentation by methodology well known in the art. Both the OX1R and/or OX2R G-coupled protein receptors (GPCRs) couple through the Gαq signaling pathway, which ultimately promotes calcium mobilization via inositol triphosphate (IP3) production. The half-life of IP-3 is relatively short, being rapidly metabolized to inositol monophosphate (IP-1), which can be readily detected using a commercially available assay kit (IP-One; Cisbio; cat #621PAPEC) coupled with a cell line expressing the target receptor(s) of interest. The utility of the compounds in accordance with the present invention as orexin receptor OX1R and/or OX2R agonists may be determined utilizing this assay.
In a typical experiment, the OX1 and OX2 receptor agonist activity is determined in accordance with the following general experimental method. Chinese hamster ovary (CHO) cells expressing human OX1R and/or the human OX2R were grown in Iscove's modified DMEM containing glutaMAX™, 1% G418, 100 U/mL penicillin, 100 μg/mL streptomycin and 10% heat-inactivated qualified fetal bovine serum (FBS). The OX2R cells were seeded at 10,000 cells/well/50 μL and the OX1R cells were seeded at 20,000 cells/well/50 μL into 384-well white tissue culture plates (Greiner; cat #781080). All cell/media reagents were from GIBCO-Invitrogen Corp. The seeded cell plate(s) were incubated at 37° C. with 5% CO2 and 85% humidity for 20-24 hours. On the day of the assay, assay-ready compound plates were prepared using an acoustic liquid handler (ECHO; Labcyte), which dispensed sufficient volume of test compound stock (10 mM in DMSO) or 100% DMSO to prepare 10 point, ½-log dilutions in a final volume of 202.5 nL/well in all test wells of a 384-well diamond plate (Labcyte). Following completion of assay-ready plates, importantly, the next three steps were performed with minimal delay: 1) 20 μl of 1× stimulation buffer was added to the compound plate using a Multidrop Combi (small cassette, Thermo Fisher Scientific cat #24073290); 2) culture medium was removed from the cell plate using the Bluewasher plate washer (gentle spin; BlueCatBio); 3) 14 μl of compound/stimulation buffer mixture was added to the cell plate using a Bravo liquid handler (Agilent) prior to incubating cell plates at 37° C. with 5% CO2 and 85% humidity for 1 or 2 hours (OX1R and OX2R, respectively). During this incubation, IP-one detection reagents were prepared (38:1:1 lysis buffer:D2:AB-cryptate reagents). Six μL of mixed detection reagents were added to the cell plate using a Multidrop Combi (small cassette, Thermo Fisher Scientific cat #24073290) and incubated 60 minutes at room temperature in the dark. Fluorescence signal was detected using an Envision plate reader (Perkin Elmer) [LANCE/DELFIA Dual Enh (Em: APC 665; Ex: Cy5 620)].
For each compound, data were fit to a four parameter logistic fit (ActivityBase software) and the EC50 was reported as the inflection point of the resulting curve. Percent effect for each test compound was determined as the percentage of sample raw value/mean max effect, where the mean max effect was derived from the mean raw value of 32 control wells per assay plate (using Orexin A (cat #003-30) at 1 μM for human OX1R and a reference compound at 1 uM with 100% activity previously established by comparison to Orexin A for human OX2R). The intrinsic orexin receptor agonist activity of a compound which may be used in the present invention may be determined by these assays.

Row | SMILES | Emax [%]
1 | CC(C)OC(=O)N1[C@@H]2CCC[C@@H]2[C@H](NS(C)(=O)=O)[C@@H]1COC1CCN(c2ncc(F)cn2)CC1 [Example 10, Isopropyl (2R,3S,3aS,6aR)-2-(((1-(5-fluoropyrimidin-2-yl)piperidin-4-yl)oxy)methyl)-3-(methylsulfonamido)hexahydrocyclopenta[b]pyrrole-1(2H)-carboxylate] | 103
2 | COC(=O)N1[C@@H]2COC[C@@H]2[C@H](NS(=O)(=O)N(C)C)[C@@H]1CO[C@H]1CC[C@@H](c2cccc(F)c2)CC1 [Example 5, methyl (2R,3S,3aS,6aS)-3-((N,N-dimethylsulfamoyl)amino)-2-((((1s,4S)-4-(3-fluorophenyl)cyclohexyl)oxy)methyl)hexahydro-1H-furo[3,4-b]pyrrole-1-carboxylate] | 101
3 | COC(=O)N1[C@@H]2COC[C@@H]2[C@H](NS(C)(=O)=O)[C@@H]1CO[C@H]1CC[C@@H](c2cccc(F)c2)CC1 [Example 4, methyl (2R,3S,3aS,6aS)-2-((((1s,4S)-4-(3-fluorophenyl)cyclohexyl)oxy)methyl)-3-(methylsulfonamido)hexahydro-1H-furo[3,4-b]pyrrole-1-carboxylate] | 101
4 | COC(=O)N1[C@@H]2CCC[C@@H]2[C@H](NS(C)(=O)=O)[C@@H]1CO[C@H]1CC[C@@H](c2ccccc2)CC1 [Example 7, Methyl (2R,3S,3aS,6aR)-3-(methylsulfonamido)-2-((((1s,4S)-4-phenylcyclohexyl)oxy)-methyl)hexahydrocyclopenta[b]pyrrole-1(2H)-carboxylate] | 101
5 | COC(=O)N1[C@@H]2CC[C@@H]2[C@H](NS(C)(=O)=O)[C@@H]1CO[C@H]1CC[C@@H](c2ccccc2)CC1 [Example 11, methyl (1R,3R,4S,5S)-4-(methylsulfonamido)-3-((((1s,4S)-4-phenylcyclohexyl)oxy)methyl)-2-azabicyclo[3.2.0]heptane-2-carboxylate] | 103
6 | COC(=O)N1[C@@H]2CCC[C@@H]2[C@H](NS(C)(=O)=O)[C@@H]1CO[C@H]1CC[C@@H](c2cccc(F)c2)CC1 [Example 1, methyl (2R,3S,3aS,6aR)-2-((((1s,4S)-4-(3-fluorophenyl)cyclohexyl)oxy)methyl)-3-(methylsulfonamido)hexahydrocyclopenta[b]pyrrole-1(2H)-carboxylate] | 101
7 | CNS(=O)(=O)N[C@H]1[C@H]2CCC[C@H]2N(C(=O)OC)[C@H]1CO[C@H]1CC[C@@H](c2cccc(F)c2)CC1 [Example 3, methyl (2R,3S,3aS,6aR)-2-((((1s,4S)-4-(3-fluorophenyl)cyclohexyl)oxy)methyl)-3-((N-methylsulfamoyl)amino)hexahydrocyclopenta[b]pyrrole-1(2H)-carboxylate] | 98
8 | COC(=O)N1[C@@H]2COC[C@@H]2[C@H](NS(=O)(=O)CF)[C@@H]1CO[C@H]1CC[C@@H](c2cccc(F)c2)CC1 [Example 6, methyl (2R,3S,3aS,6aS)-3-((fluoromethyl)sulfonamido)-2-((((1s,4S)-4-(3-fluorophenyl)-cyclohexyl)oxy)methyl)hexahydro-1H-furo[3,4-b]pyrrole-1-carboxylate] | 102
9 | COC(=O)N1[C@@H]2CCC[C@@H]2[C@H](NS(C)(=O)=O)[C@@H]1COC1CCN(c2ncc(F)cn2)CC1 [Example 9, Methyl (2R,3S,3aS,6aR)-2-(((1-(5-fluoropyrimidin-2-yl)piperidin-4-yl)oxy)methyl)-3-(methylsulfonamido)hexahydrocyclopenta[b]pyrrole-1(2H)-carboxylate] | 97
10 | COC(=O)N1[C@@H]2CCC[C@@H]2[C@H](NS(=O)(=O)N(C)C)[C@@H]1CO[C@H]1CC[C@@H](c2ccccc2)CC1 [Example 8, Methyl (2R,3S,3aS,6aR)-3-((N,N-dimethylsulfamoyl)amino)-2-((((1s,4S)-4-phenyl-cyclohexyl)oxy)methyl)hexahydrocyclopenta[b]pyrrole-1(2H)-carboxylate] | 98
11 | COC(=O)N1[C@@H]2CCC[C@@H]2[C@H](NS(=O)(=O)N(C)C)[C@@H]1CO[C@H]1CC[C@@H](c2cccc(F)c2)CC1 [Example 2, methyl (2R,3S,3aS,6aR)-3-((N,N-dimethylsulfamoyl)amino)-2-((((1s,4S)-4-(3-fluorophenyl)cyclohexyl)oxy)methyl)hexahydrocyclopenta[b]pyrrole-1(2H)-carboxylate] | 101
